From patent US20060063209A1, “Engineered antibody fragment that irreversibly binds an antigen” (THE REGENTS OF THE UNIVERSITY OF CALIFORNIA, priority 2004, published 2006)
pKd: −log10 of the molar value. Entries after “also recorded” stand apart in the source; their conditions may differ.

Legend:
[1] = system: S95C Fab; assay: Competition assay: blocking covalent attachment of 111In-AABE; format: binding; details: excess nonradioactive ABE-metal chelate
Source text: (a) Competition ELISA curves. Different metal-ABE chelates compete with an immobilized indium chelate for binding Fab S95C. (b) Competitive binding of a series of metal-ABE chelates, measured by blocking the covalent attachment of ^111In-AABE to Fab S95C. SDSPAGE gel bands show increased labeling of the light chain with decreasing competition.
To further confirm that S95C Fab retained the ligand-binding specificity, we performed a competition assay to see whether nonradioactive ABE-indium, -iron, -cadmium, -scandium, or -gallium could block the covalent attachment of ^111In-AABE.

[2] = system: Fab S95C; assay: Covalent attachment of 111In-chelates to engineered Fab S95C (SDS-PAGE); format: binding; details: physiological pH and temperature, raw culture medium with 10% fetal calf serum
Description: FIG. 5 Conjugation of electrophilic ^111In-benzyl-EDTA derivatives with engineered Fab S95C. Phosphorimage of 10-20% SDS-PAGE gel of samples of complete culture media incubated with ^111In-labeled (A) CABE, (B) CpABE, (C) AABE, and (D) ABE. The radiolabeled light chains migrate near 25 Kd.
To investigate whether either the S95C or the N96C Fab would bind irreversibly to its target, ^111In-labeled chelates bearing electrophilic groups were incubated at physiological pH and temperature with raw tissue culture medium from the cells expressing these recombinant proteins. The culture medium contained 10% fetal calf serum, representative of typical biological media.
The samples were analyzed by denaturing gel electrophoresis (SDS-PAGE). Separation under reducing and denaturing conditions on SDS-PAGE separates the light chain from the heavy chain of each Fab, functionally destroying the antibody-binding pocket. Chelates bound to the Fab but not covalently linked will dissociate because the antibody-binding pocket is no longer folded. […] However, a chelate that not only bound to a Fab but also covalently linked will be attached to the Fab light chain and migrate with it on SDS-PAGE.

[3] = Whole-body clearance of indium-111 labeled electrophilic benzyl-EDTA derivatives; format: in vivo; details: indium-111 labeled chelate, BALB/c mice; for apparent half-life, whole-body clearance: after tail-vein injection
Description: FIG. 4 Whole-body clearance of indium-^111I labeled electrophilic derivatives of benzyl-EDTA from BALB/c mice after tail-vein injection. Here the objective was to find an electrophilic chelate that clears from the animal quickly when not captured by an engineered CHA255.
As reactive ligands, a small set of chelates bearing electrophilic para substituents (FIG. 3) that could react with cysteine were prepared. To be most useful, the electrophilic ligands should be stable in biological media so that they not react prematurely with common biological nucleophiles such as the cysteine on glutathione or in albumin (Geigy Scientific Tables Vol 3, C. Lentner, ed., Ciba-Geigy Ltd., Basel, Switz (1984)). The whole-body clearance of the radiolabeled chelates from mice was studied (FIG. 4 and Chmura, A. J., et al., J. Controlled Release 78:249-258 (2002)) to identify the electrophilic chelates that are unreactive in plasma in vitro, and which also quantitatively clear from live animals.

[4] = system: Fab S95C; assay: Kinetics of covalent bond formation with Fab S95C; format: binding; details: 22° C., pH 7.4
Description: FIG. 7 (a) Phosphorimage of a representative SDS-PAGE assay of the extent of permanent attachment of ^111In-AABE to the light chain of Fab S95C. (b)Kinetics of formation of the covalent bond between bound ^111In-AABE and Fab S95C, at 22° C., pH 7.4.
We explored the rate of covalent attachment of the AABE-^111In chelate to the S95C mutant, by monitoring the extent of reaction as a function of time. The covalent attachment was 50% complete in approximately 10 min at 22° C. (FIG. 7).

[5] = system: G54C mutant of 2D12.5; assay: Permanent binding to G54C, competitive 90Y-AABD attachment, SDS-PAGE; details: 37° C.
Description: FIG. 17 a) Scheme describing the permanent binding pair. b) Infinite binding is observed not only for ^90Y-AABD but also for ^111In-AABD, assayed by SDS-PAGE under denaturing conditions where only permanently bound complexes remain attached to the antibody.
FIG. 18 The G54C mutant was preincubated in triplicate with 10 μM AABD complexes of Y^3+, In^3+ or Cu^2+, a negative control N-(1-carbamoyl-2-(4-nitrophenyl)-ethyl)-acrylamide or N-(4-carboxymethylphenyl)-acrylamide, or just buffer, for 5 min, 20 min or 120 min at 37° C., pH 7.5. At the stated times ^90Y-AABD (1 μM) was added to each solution to compete for free G54C. Permanent binding was assayed by measuring band intensities after SDS-PAGE. a) Phosphorimage of gel. The fainter the bands, the greater the permanent binding by the unlabeled ligand. b) Crystal structures of Y-DOTA, In-DOTA-mono(p aminoanilide) (some atoms removed for clarity) and Cu-DOTA.
FIG. 19 a) Metal-AABD (10 μM) complexes were preincubated separately with aliquots of G54C for 5 min, followed by addition of 1 μM ^90Y-AABD, which competes for free G54C, and SDS-PAGE analysis. b) From quantitative phosphorimaging, the highest-affinity AABD complexes form permanent bonds with G54C with higher yields than more 3+weakly binding rare earth-AABD complexes whose ionic radii are slightly smaller (Lu Yb^3+) or larger (Ce^3+, La^3+) than ideal.
We were curious to see if an even weaker binder such as a copper chelate (KD˜10^−4 M for Cu-NBD) would bind irreversibly under ordinary conditions. We tested this by comparing the permanent binding of Y^3+-, In^3+-, and Cu^2+-AABD, using competitive ^90Y-AABD attachment as an indicator (FIG. 18). […] Weaker binding In-AABD blocks >50% of the sites after 5 min preincubation, and even more at later times. Very weakly binding Cu-AABD initially occupies only about 10% of the G54C sites under these conditions, but it has permanently attached to G54C in good yield after 2 hr, blocking>70% of the sites.

[6] = system: antibody 2D12.5; assay: Competitive immunoassay (ELISA) of metal chelate binding; design: species or system mouse; details: reversible binding to parental 2D12.5
Source text: FIG. 9 Relative binding of metal-(S)NBD complexes to antibody 2D12.5. A representative set of competitive binding curves obtained from ELISA experiments. Distance between midpoints is related to difference between dissociation constants. Error bars (representing the standard error of the mean) are shown but are generally smaller than the data points.
FIG. 14 Binding of yttrium chelates with different stereochemistry to antibody 2D12.5, showing that the antibody binds a chelate with the side chain in the R configuration approximately one order of magnitude less well than the S configuration. […] Error bars are smaller than the data symbols. Data were generated by competitive ELISA.
A competitive immunoassay to measure the binding constants of various metal-(S)NBD complexes relative to the original Y^3+ complex (FIG. 9) was developed to assess the metal selectivity of antibody 2D12.5. Briefly, 2D12.5 was incubated at 37° C. in the presence of immobilized HSA-21T-Y-(S)BAD and a soluble metal-(S)NBD competitor (Y-(S)BAD was linked to human serum albumin via 2-iminothiolane). The metal-(S)NBD concentration was varied from μM to pM in order to determine the relative binding affinity of 2D12.5 for each metal chelate in comparison to Y-(S)NBD. […] Other antibodies that bind metal chelates do so with a strong preference for one or possibly two metals (Love, R. et al., Biochemistry 32, 10950-10959 (1993), and Khosraviani, M., et al., (2000) Bioconjugate Chem., 11, 267-277). For example, the (S)NBD chelate of group IIIB ion Sc(III) binds to the antibody with a much lower affinity (<1%) than the strongest binding rare earth complexes, perhaps because Sc(III) has a much smaller ionic radius (Meehan, P. R., et al., Coord. Chem. Rev., 181, 121145, and Shannon, R. D. (1976) Acta Crystallogr., Sect. A: Found. Crystallogr., A32, 751-767).

[7] = system: G54C Fab; assay: Kinetics of permanent bond formation with G54C Fab; format: binding
Description: FIG. 21 Kinetics of permanent bond formation between G54C Fab (1 μM) and 10 μM ^90Y-labeled YAABD. The addition of a high concentration of Y-NBD, a reversibly binding competitor, after 6 min competitively blocks the re-binding of any Y-AABD that dissociates without forming a permanent bond. The experiment containing no competitor, on the other hand, allows any Y-AABD molecules initially bound in an unproductive mode to rebind in an orientation favorable for permanent covalent bond formation until a maximum is reached.
The question to be addressed was the probability that Y-AABD reacts with G54C the first time it forms a complex, instead of dissociating and rebinding. In the first experiment ^90Y-labeled Y-AABD (10 μM) was added to G54C Fab (1 μM) at 37° C., pH 7.5. Samples were withdrawn at various times and were immediately added to SAB, boiled and reduced under denaturing conditions to halt any further permanent bond formation. Samples were analyzed by SDS-PAGE, and the extent of permanent bond formation was determined by measuring the relative radioactivity of bands.
In a second experiment, performed in parallel, conditions were identical to the first except that the reversible competitor Y-NBD was added in vast excess (1 mM) relative to Y-AABD after 6 min, allowing labeled Y-AABD complexes to form bonds or dissociate, but competitively blocking any re-binding of Y-AABD to G54C.

SMILES | blocking of covalent attachment of 111In-AABE [1] | covalent attachment to Fab S95C light chain [2] | apparent half-life, whole-body clearance [3] | covalent attachment to Fab S95C light chain ([2]; listed as 111In-AABE) | covalent attachment to Fab S95C light chain ([2]; listed as AABE-^111In) | whole-body clearance [3] | time to 50% complete covalent attachment [4] | G54C sites blocked from 90Y-AABD ([5]; 10 μM complex, preincubation 5 min, pH 7.5) | permanent binding to G54C ([5]; pH 7.5, SDS-PAGE, listed as 90Y-AABD) | pKd [6] | fraction of molecules reacting upon initial complex formation [7]
Nc1ccc(C[C@@H](CN(CC(=O)O)CC(=O)O)N(CC(=O)O)CC(=O)O)cc1 [ABE, (S)-1-[p-(amino)benzyl]-EDTA, reference compound] | effectively blocks the reaction | not | about 4 h | – | – | – | – | – | – | – | –
C=CC(=O)Nc1ccc(C[C@@H](CN(CC(=O)O)CC(=O)O)N(CC(=O)O)CC(=O)O)cc1 [AABE, (S)-1-[p-(acrylamido)benzyl]-EDTA] | – | – | about 4 h | reacted equally well | reacted with the S95C mutant of CHA255 to permanently tag the light chain | showed the required clearance properties; also recorded: clears as completely—and almost as rapidly—as ABE | approximately 10 min | – | – | – | –
C=CC(=O)Nc1ccc(C[C@H]2CN(CC(=O)O)CCN(CC(=O)O)CCN(CC(=O)O)CCN2CC(=O)O)cc1 [Y-AABD, (S)-2-(4-acrylamidobenzyl)-DOTA] | – | – | – | – | – | – | – | > 90% | permanently and specifically attaches | 8.40 | about half
